According to paper PMC6253880, “2-Amido-3-(1H-Indol-3-yl)-N-Substitued-Propanamides as a New Class of Falcipain-2 Inhibitors. 1. Design, Synthesis, Biological Evaluation and Binding Model Studies” (Molecules, 2009):
Where two headings read alike, the source gives them in different places.

How the values were obtained:
falcipain-2 (FP-2) [1] = biological target: T1, falcipain-2 (FP-2) (Plasmodium falciparum, UniProt Q8I6U4); assay: Enzyme inhibition assay, recombinant FP-2, substrate Z-Leu-Arg-AMC, fluorescence; format: biochemical; settings: for inhibition at 10 µM / Inhibition rate at 10 μM (%): FP-2 30 nM, pH 5.5, 30 min preincubation; for Inhibition rate at 10 μM (%): 10 μM compound
T1 construct: made in house
T1 sequence (Q8I6U4 244-484): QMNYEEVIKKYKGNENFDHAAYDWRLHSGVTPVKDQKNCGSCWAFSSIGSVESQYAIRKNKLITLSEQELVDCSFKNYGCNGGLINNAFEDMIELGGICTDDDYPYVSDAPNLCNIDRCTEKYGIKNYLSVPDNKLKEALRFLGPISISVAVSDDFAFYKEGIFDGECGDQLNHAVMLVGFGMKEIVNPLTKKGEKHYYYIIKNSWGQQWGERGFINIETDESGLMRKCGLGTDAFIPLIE
Experimental: (§1) For the primary assay, the percent inhibitions of the compounds were measured at 10 μM. […] It is clear that the inhibitory activity of compound 2k was ~3 times higher than that of the lead compound 1, proving the validity of our chemical modifications. The anti-malarial potential of compound 1 in mice was investigated with Plasmodium berghei ANKA using a standard 4-day suppression test.
The purification and refolding of recombinant protein FP-2 was performed as described by Shenai et al. IC50 values against recombinant FP-2 were determined as described previously. FP-2 (30nM) was incubated for 30 min at room temperature in 100 mM sodium acetate, pH 5.5, 10 mM DTT, with different concentrations of tested inhibitors. Inhibitor solutions were prepared from stock in DMSO (maximum concentration of DMSO in the assay was 1%). After 30 min incubation, the substrate Z-Leu-Arg-AMC (benzoxycarbonyl-Leu-Arg-7-amino-4-methylcoumarin, Bachem AG) in the same buffer was added to a final concentration of 25 μM. The increase in fluorescence (excitation at 355 nm and emission at 460 nm) was monitored for 30 min at room temperature with an automated microtiter plate spectrofluorimeter (Molecular Devices, Flex Station). Half-maximal inhibitory concentration (IC50) was determined from plots of percent activity over compound concentration using GraphPad Prism software.

falcipain-2 (FP-2) [2] = biological target: T1, falcipain-2 (FP-2); assay: Surface plasmon resonance-based FP-2/ligand binding assay (Biacore 3000, CM5 chip); settings: SPR, immobilized FP-2, steady state affinity fitting, 25°C, HBS-EP pH 7.4
Source text: Targeting the crystal structure of FP-2 (PDB entry 2GHU), a total of 80,000 compounds were subsequently docked and ranked according to the Glide and GAsDock software. Finally, 81 compounds were purchased and submitted to biological evaluations against FP-2. Because enzymatic assays are time-consuming, surface plasmon resonance (SPR) measurements were used for the primary screening to determine the binding affinity of these 81 candidate molecules to FP-2. […] Among the 81 compounds, the biosensor RU of compound 1 was concentration-dependent. […] Thus, compound 1 could be designated as a binder (or hit) of FP-2.
The purification and refolding of recombinant protein FP-2 was performed as described by Shenai et al. The binding affinity of compound 1 to FP-2 in vitro was determined based on surface plasmon resonance (SPR) technology. The measurement was performed using the dual flow cell Biacore 3000 instrument (Biacore AB, Uppsala, Sweden). Immobilization of FP-2 to the hydrophilic carboxymethylated dextran matrix of the sensor chip CM5 (Biacore) was carried out by the standard primary amine coupling reaction wizard. […] The equilibrium constants (KD values) evaluating the protein–ligand binding affinities were determined by the steady state affinity fitting analysis of the Biacore data.

Plasmodium berghei ANKA = assay: Standard 4-day suppression test in mice; format: in vivo; settings: 9 mg/kg body weight intragastric daily for 4 days following infection, unpublished data
Experimental: as §1

[3] = pH 5.5, read-out: Inhibition rate at 10 μM (%), 10 μM compound
[4] = pH 5.5, 10 μM compound, read-out: Inhibition rate at 10 μM (%)

SMILES | inhibition at 10 µM (falcipain-2 (FP-2) [1]; [3]) | melting point | further results
O=C(N[C@H](Cc1c[nH]c2ccccc12)C(=O)Nc1ccc2c(c1)OCO2)Oc1ccccc1 [Compound 2g, (R)-2-Phenoxycarboxamido-3-(1H-indol-3-yl)-N-(benzo[1,3]dioxol-5-yl)-propanamide] | 3.1% | 186 to 188 °C | –
O=C(N[C@H](Cc1c[nH]c2ccccc12)C(=O)NCc1cccs1)Oc1ccccc1 [Compound 2i, (R)-2-Phenoxycarboxamido-3-(1H-indol-3-yl)-N-[(thiophen-2-yl)methyl]-propanamide] | 2.2% | 184 to 186 °C | –
O=C(N[C@H](Cc1c[nH]c2ccccc12)C(=O)NCc1ccc([N+](=O)[O-])cc1)Oc1ccccc1 [Compound 2k, (R)-2-Phenoxycarboxamido-3-(1H-indol-3-yl)-N-[(4-nitrophenyl)methyl]-propanamide] | – | – | IC50 (falcipain-2 (FP-2) [1]): 10 µM; FP-2 inhibitory activity relative to lead compound 1 (fold better) (falcipain-2 (FP-2) [1]; ratio of inhibitory activity versus compound 1): ~ 3
CCOc1ccc(NC(=O)[C@@H](Cc2c[nH]c3ccccc23)NC(=O)Oc2ccccc2)cc1 [Compound 2f, (R)-2-Phenoxycarboxamido-3-(1H-indol-3-yl)-N-(4-ethoxyphenyl)-propanamide] | 13.6% | 180 to 184 °C | –
O=C(N[C@H](Cc1c[nH]c2ccccc12)C(=O)NCc1ccccc1)Oc1ccccc1 [Compound 1, (R)-2-Phenoxycarboxamido-3-(1H-indol-3-yl)-N-benzylpropanamide] | > 20% | – | Kd (falcipain-2 (FP-2) [2]): 5.88 µM; IC50 (falcipain-2 (FP-2) [1]): 29.7 µM; Inhibition rate at 10 μM (%) (falcipain-2 (FP-2) [1]): 29.4%; reduction in parasitemia relative to normal control (Plasmodium berghei ANKA): < 50%
O=C(N[C@@H](Cc1c[nH]c2ccccc12)C(=O)NCc1ccccc1)Oc1ccccc1 [Compound 2a, (S)-2-Phenoxycarboxamido-3-(1H-indol-3-yl)-N-benzylpropanamide] | 14.3% | – | –
O=C(Cc1ccccc1)N[C@H](Cc1c[nH]c2ccccc12)C(=O)NCc1ccccc1 [Compound 2b, (R)-2-(2-Phenylacetamido)-3-(1H-indol-3-yl)-N-benzylpropanamide] | – | – | Inhibition rate at 10 μM (%) (falcipain-2 (FP-2) [1]): 25.7%; inhibition at 10 µM (falcipain-2 (FP-2) [1]; [4]): > 20%; IC50 (falcipain-2 (FP-2) [1]; recombinant FP-2 30 nM, Z-Leu-Arg-AMC 25 μM, pH 5.5, read-out: IC50): 39.4 µM
C#CCNC(=O)[C@@H](Cc1c[nH]c2ccccc12)NC(=O)Oc1ccccc1 [Compound 2j, (R)-2-Phenoxycarboxamido-3-(1H-indol-3-yl)-N-(prop-2-yn-1-yl)-propanamide] | 6.6% | 173 to 177 °C | –
COC(=O)c1ccc(CNC(=O)[C@@H](Cc2c[nH]c3ccccc23)NC(=O)Oc2ccccc2)cc1 [Compound 2l, (R)-2-Phenoxycarboxamido-3-(1H-indol-3-yl)-N-(4-methoxycarbonyl-phenylmethyl)-propanamide] | > 20% | – | IC50 (falcipain-2 (FP-2) [1]): 13.3 µM; Inhibition rate at 10 μM (%) (falcipain-2 (FP-2) [1]): 32.9%
O=C(NCc1ccccc1)[C@@H](Cc1c[nH]c2ccccc12)NCc1ccccc1 [Compound 2c, (R)-2-Benzylamino-3-(1H-indol-3-yl)-N-benzyl-propanamide] | – | 38 to 40 °C | inhibition at 10 µM (falcipain-2 (FP-2) [1]; [4]): 13%
O=C(N[C@H](Cc1c[nH]c2ccccc12)C(=O)Nc1ccccc1)Oc1ccccc1 [Compound 2d, (R)-2-Phenoxycarboxamido-3-(1H-indol-3-yl)-N-phenylpropanamide] | 11.8% | 195 to 197 °C | –
O=C(N[C@H](Cc1c[nH]c2ccccc12)C(=O)Nc1ccc(F)cc1)Oc1ccccc1 [Compound 2e, (R)-2-Phenoxycarboxamido-3-(1H-indol-3-yl)-N-(4-fluorophenyl)-propanamide] | 3.1% | 185 to 189 °C | –
